# Key:
# Format in all cases: in vivo
# Poa annua [1] = assay: Post-emergence treatment, herbicidal efficacy on annual bluegrass; settings: 4 weeks after spraying, scale 0 to 10
# Summary of the method: (§1)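 Seed weeds and crops into 1:1 sandy loam/mixed bed soil; grow about two weeks to roughly 3 leaves; track-spray 125–1,000 g/ha at 300 L/ha from acetone/0.2% Tween 20; hold in greenhouse (25–30 °C day, 15–25 °C night); rate efficacy and crop injury 0–10 after four weeks.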
# Alopecurus myosuroides [2] = assay: Post-emergence treatment, herbicidal efficacy on blackgrass; settings: 4 weeks after spraying, scale 0 to 10
# Summary of the method: as §1
# [3] = tested on: grass weeds including barnyardrass, large crabgrass, and annual bluegrass; assay: Pre-emergence treatment, grass weeds overall; settings: relative to reference compounds
# Experimental: (§2) A rectangular plastic pot having a surface area of 300 cm^2 was filled with sandy loam soil and mixed bed soil which were mixed at a ratio of 1:1, and then, barnyardrass (Echinochloa crusgalli), large crabgrass (Digitaria sanguinalis), blackgrass (Alopecurus myosuroides), and annual bluegrass (Poa annua), which are grass weeds, were seeded thereto. In a pot that was prepared as described above, seeds of corn, soybean, cotton, wheat, and rice were seeded. The pots were irrigated, and one day after, chemicals were sprayed thereto. The spraying was performed by using a track sprayer (R&D Sprayer, USA) equipped with a Teejet 8002 (Spraying Systems Co., USA) nozzle, and a spraying amount was adjusted at 300 L/ha. A spraying solution was prepared by dissolving test materials or references in acetone and adding the same amount of 0.2%(v/v) tween 20 aqueous solution thereto. Application rates were 500, 250, 125, and 62.5 g/ha. The pots were placed in a greenhouse in which during day, the temperature was maintained at a temperature of 25 to 30° C., and during night, the temperature was maintained at a temperature of 15 to 25° C., and the pots were periodically irrigated. Four weeks after the spraying the test materials or References, effects and phytotoxicity of the respective weeds and crops were evaluated in a scale of 0 to 10 (0: no effects, 10: complete death), and results thereof are shown in Table 4 below.
# Rice [4] = assay: Pre-emergence treatment, phytotoxicity to rice; settings: 500 g/ha, 4 weeks after spraying, scale 0 to 10 (0: no effects, 10: complete death)
# Summary of the method: (§3)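 Test materials are dissolved in acetone and mixed with an equal amount of 0.2% (v/v) Tween 20 solution. This solution is sprayed pre-emergence at 500, 250, 125 or 62.5 g/ha onto freshly seeded, irrigated soil one day after watering. Effects are rated 0–10 four weeks later.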
# Corn [5] = assay: Post-emergence treatment, phytotoxicity to corn; settings: post-emergence (about 3 leaf stage), 1,000 g/ha, 4 weeks after spraying, scale 0 to 10 (0: no effects, 10: complete death)
# Summary of the method: as §1
# Poa annua [6] = assay: Pre-emergence treatment, herbicidal efficacy on annual bluegrass; settings: 4 weeks after spraying, scale 0 to 10
# Summary of the method: as §3
# Digitaria sanguinalis [7] = assay: Pre-emergence treatment, herbicidal efficacy on large crabgrass; settings: 4 weeks after spraying, scale 0 to 10
# Summary of the method: as §3
# Wheat [8] = assay: Post-emergence treatment, phytotoxicity to wheat; settings: post-emergence (about 3 leaf stage), 1,000 g/ha, 4 weeks after spraying, scale 0 to 10 (0: no effects, 10: complete death)
# Summary of the method: as §1
# Soybean [9] = assay: Pre-emergence treatment, phytotoxicity to soybean; settings: 500 g/ha, 4 weeks after spraying, scale 0 to 10 (0: no effects, 10: complete death)
# Summary of the method: as §3
# Corn [10] = assay: Pre-emergence treatment, phytotoxicity to corn; settings: 500 g/ha, 4 weeks after spraying, scale 0 to 10 (0: no effects, 10: complete death)
# Summary of the method: as §3
# Digitaria sanguinalis [11] = assay: Post-emergence treatment, herbicidal efficacy on large crabgrass; settings: 4 weeks after spraying, scale 0 to 10
# Summary of the method: as §1
# Wheat [12] = assay: Pre-emergence treatment, phytotoxicity to wheat; settings: 500 g/ha, 4 weeks after spraying, scale 0 to 10 (0: no effects, 10: complete death)
# Summary of the method: as §3
# Alopecurus myosuroides [13] = assay: Pre-emergence treatment, herbicidal efficacy on blackgrass; settings: 4 weeks after spraying, scale 0 to 10
# Summary of the method: as §3
# Cotton [14] = assay: Post-emergence treatment, phytotoxicity to cotton; settings: post-emergence (about 3 leaf stage), 1,000 g/ha, 4 weeks after spraying, scale 0 to 10 (0: no effects, 10: complete death)
# Summary of the method: as §1
# Rice [15] = assay: Post-emergence treatment, phytotoxicity to rice; settings: post-emergence (about 3 leaf stage), 1,000 g/ha, 4 weeks after spraying, scale 0 to 10 (0: no effects, 10: complete death)
# Summary of the method: as §1
# Soybean [16] = assay: Post-emergence treatment, phytotoxicity to soybean; settings: post-emergence (about 3 leaf stage), 1,000 g/ha, 4 weeks after spraying, scale 0 to 10 (0: no effects, 10: complete death)
# Summary of the method: as §1
# [17] = tested on: barnyardgrass, large crabgrass, and annual bluegrass; assay: Post-emergence treatment, grass weeds overall; settings: 250 g/ha
# Experimental: as §2
# Pots containing crops and weeds were prepared in the same manner as in Example 7, and then, in the second week in which crops and weeds entered into about 3 leaf stage, the test materials and the references were sprayed thereto in the same manner as described above. The rates were 1,000, 500, 250, and 125 g/ha. Four weeks after the spraying of the test materials or the references, herbicidal efficacy and phytotoxicity to the respective weeds and crops were evaluated in a scale of 0 to 10 (0: no effects, 10: complete death).
# Echinochloa crusgalli [18] = assay: Post-emergence treatment, herbicidal efficacy on barnyardgrass; settings: 4 weeks after spraying, scale 0 to 10
# Summary of the method: as §1
# Cotton [19] = assay: Pre-emergence treatment, phytotoxicity to cotton; settings: 500 g/ha, 4 weeks after spraying, scale 0 to 10 (0: no effects, 10: complete death)
# Summary of the method: as §3
# Echinochloa crusgalli [20] = assay: Pre-emergence treatment, herbicidal efficacy on barnyardgrass; settings: 4 weeks after spraying
# Summary of the method: as §3
# [21] = 500 g/ha, scale 0 to 10 (0: no effects, 10: complete death)
structure (smiles),measurement,setting,value
"CC1(COCc2c(F)cccc2F)CC(c2ccccc2F)=NO1 (stereo not shown) [Compound 4, 5-((2,6-difluorobenzyloxy)methyl)-3-(2-fluorophenyl)-5-methyl-4,5-dihydroisoxazole]","Herbicidal efficacy, Poa annua","Poa annua [1]; post-emergence, 125 g/ha",6
same,"Herbicidal efficacy, Poa annua","Poa annua [1]; post-emergence, 250 g/ha",7
same,"Herbicidal efficacy, Poa annua","Poa annua [1]; post-emergence, 500 g/ha",10
same,"Herbicidal efficacy, Poa annua","Poa annua [1]; post-emergence, 1,000 g/ha",10
same,"Herbicidal efficacy, Alopecurus myosuroides","Alopecurus myosuroides [2]; post-emergence, 125 g/ha",0
same,"Herbicidal efficacy, Alopecurus myosuroides","Alopecurus myosuroides [2]; post-emergence, 250 g/ha",4
same,"Herbicidal efficacy, Alopecurus myosuroides","Alopecurus myosuroides [2]; post-emergence, 500 g/ha",9
same,"Herbicidal efficacy, Alopecurus myosuroides","Alopecurus myosuroides [2]; post-emergence, 1,000 g/ha",10
same,efficacy stronger than the References,[3],about 4 times
same,"Phytotoxicity, Rice",Rice [4],0
same,"Phytotoxicity, Corn",Corn [5],4
same,"Herbicidal efficacy, Poa annua",Poa annua [6]; 62.5 g/ha,9
same,"Herbicidal efficacy, Poa annua",Poa annua [6]; 125 g/ha,10
same,"Herbicidal efficacy, Poa annua",Poa annua [6]; 250 g/ha,10
same,"Herbicidal efficacy, Poa annua",Poa annua [6]; 500 g/ha,10
same,"Herbicidal efficacy, Digitaria sanguinalis",Digitaria sanguinalis [7]; 62.5 g/ha,10
same,"Herbicidal efficacy, Digitaria sanguinalis",Digitaria sanguinalis [7]; 125 g/ha,10
same,"Herbicidal efficacy, Digitaria sanguinalis",Digitaria sanguinalis [7]; 250 g/ha,10
same,"Herbicidal efficacy, Digitaria sanguinalis",Digitaria sanguinalis [7]; 500 g/ha,10
same,"Phytotoxicity, Wheat",Wheat [8],1
same,"Phytotoxicity, Soybean",Soybean [9],0
same,"Phytotoxicity, Corn",Corn [10],4
same,"Herbicidal efficacy, Digitaria sanguinalis","Digitaria sanguinalis [11]; post-emergence, 125 g/ha",6
same,"Herbicidal efficacy, Digitaria sanguinalis","Digitaria sanguinalis [11]; post-emergence, 250 g/ha",6
same,"Herbicidal efficacy, Digitaria sanguinalis","Digitaria sanguinalis [11]; post-emergence, 500 g/ha",10
same,"Herbicidal efficacy, Digitaria sanguinalis","Digitaria sanguinalis [11]; post-emergence, 1,000 g/ha",10
same,"Phytotoxicity, Wheat",Wheat [12],0
same,"Herbicidal efficacy, Alopecurus myosuroides",Alopecurus myosuroides [13]; 62.5 g/ha,3
same,"Herbicidal efficacy, Alopecurus myosuroides",Alopecurus myosuroides [13]; 125 g/ha,4
same,"Herbicidal efficacy, Alopecurus myosuroides",Alopecurus myosuroides [13]; 250 g/ha,8
same,"Herbicidal efficacy, Alopecurus myosuroides",Alopecurus myosuroides [13]; 500 g/ha,10
same,"Phytotoxicity, Cotton",Cotton [14],0
same,"Phytotoxicity, Rice",Rice [15],2
same,"Phytotoxicity, Soybean",Soybean [16],1
same,"suppression of barnyardgrass, large crabgrass, and annual bluegrass",[17],greatly suppressed
same,"Herbicidal efficacy, Echinochloa crusgalli","Echinochloa crusgalli [18]; post-emergence, 125 g/ha",5
same,"Herbicidal efficacy, Echinochloa crusgalli","Echinochloa crusgalli [18]; post-emergence, 250 g/ha",8
same,"Herbicidal efficacy, Echinochloa crusgalli","Echinochloa crusgalli [18]; post-emergence, 500 g/ha",10
same,"Herbicidal efficacy, Echinochloa crusgalli","Echinochloa crusgalli [18]; post-emergence, 1,000 g/ha",10
same,"Phytotoxicity, Cotton",Cotton [19],1
same,"Herbicidal efficacy, Echinochloa crusgalli","Echinochloa crusgalli [20]; 62.5 g/ha, scale 0 to 10",7
same,"Herbicidal efficacy, Echinochloa crusgalli","Echinochloa crusgalli [20]; 125 g/ha, scale 0 to 10",10
same,"Herbicidal efficacy, Echinochloa crusgalli","Echinochloa crusgalli [20]; 250 g/ha, scale 0 to 10",10
same,"Herbicidal efficacy, Echinochloa crusgalli",Echinochloa crusgalli [20]; [21],10
"CC1(COCc2c(F)cccc2F)CC(c2ccccc2C(F)(F)F)=NO1 (stereo not shown) [Compound 5, 5-((2,6-difluorobenzyloxy)methyl)-5-methyl-3-(2-(trifluoromethyl)phenyl)-4,5-dihydroisoxazole]","Herbicidal efficacy, Poa annua","Poa annua [1]; post-emergence, 125 g/ha",6
same,"Herbicidal efficacy, Poa annua","Poa annua [1]; post-emergence, 250 g/ha",7
same,"Herbicidal efficacy, Poa annua","Poa annua [1]; post-emergence, 500 g/ha",8
same,"Herbicidal efficacy, Poa annua","Poa annua [1]; post-emergence, 1,000 g/ha",10
same,"Herbicidal efficacy, Alopecurus myosuroides","Alopecurus myosuroides [2]; post-emergence, 125 g/ha",1
same,"Herbicidal efficacy, Alopecurus myosuroides","Alopecurus myosuroides [2]; post-emergence, 250 g/ha",4
same,"Herbicidal efficacy, Alopecurus myosuroides","Alopecurus myosuroides [2]; post-emergence, 500 g/ha",5
same,"Herbicidal efficacy, Alopecurus myosuroides","Alopecurus myosuroides [2]; post-emergence, 1,000 g/ha",9
same,efficacy stronger than the References,[3],about 8 times
same,"Phytotoxicity, Rice",Rice [4],0
same,"Phytotoxicity, Corn",Corn [5],5
same,"Herbicidal efficacy, Poa annua",Poa annua [6]; 62.5 g/ha,9
same,"Herbicidal efficacy, Poa annua",Poa annua [6]; 125 g/ha,9
same,"Herbicidal efficacy, Poa annua",Poa annua [6]; 250 g/ha,9
same,"Herbicidal efficacy, Poa annua",Poa annua [6]; 500 g/ha,10
same,"Herbicidal efficacy, Digitaria sanguinalis",Digitaria sanguinalis [7]; 62.5 g/ha,10
same,"Herbicidal efficacy, Digitaria sanguinalis",Digitaria sanguinalis [7]; 125 g/ha,10
same,"Herbicidal efficacy, Digitaria sanguinalis",Digitaria sanguinalis [7]; 250 g/ha,10
same,"Herbicidal efficacy, Digitaria sanguinalis",Digitaria sanguinalis [7]; 500 g/ha,10
same,"Phytotoxicity, Wheat",Wheat [8],0
same,"Phytotoxicity, Soybean",Soybean [9],2
same,"Phytotoxicity, Corn",Corn [10],3
same,"Herbicidal efficacy, Digitaria sanguinalis","Digitaria sanguinalis [11]; post-emergence, 125 g/ha",6
same,"Herbicidal efficacy, Digitaria sanguinalis","Digitaria sanguinalis [11]; post-emergence, 250 g/ha",8
same,"Herbicidal efficacy, Digitaria sanguinalis","Digitaria sanguinalis [11]; post-emergence, 500 g/ha",10
same,"Herbicidal efficacy, Digitaria sanguinalis","Digitaria sanguinalis [11]; post-emergence, 1,000 g/ha",10
same,"Phytotoxicity, Wheat",Wheat [12],0
same,"Herbicidal efficacy, Alopecurus myosuroides",Alopecurus myosuroides [13]; 62.5 g/ha,5
same,"Herbicidal efficacy, Alopecurus myosuroides",Alopecurus myosuroides [13]; 125 g/ha,6
same,"Herbicidal efficacy, Alopecurus myosuroides",Alopecurus myosuroides [13]; 250 g/ha,7
same,"Herbicidal efficacy, Alopecurus myosuroides",Alopecurus myosuroides [13]; 500 g/ha,8
same,"Phytotoxicity, Cotton",Cotton [14],0
same,"Phytotoxicity, Rice",Rice [15],0
same,"Phytotoxicity, Soybean",Soybean [16],2
same,"suppression of barnyardgrass, large crabgrass, and annual bluegrass",[17],greatly suppressed
same,"Herbicidal efficacy, Echinochloa crusgalli","Echinochloa crusgalli [18]; post-emergence, 125 g/ha",6
same,"Herbicidal efficacy, Echinochloa crusgalli","Echinochloa crusgalli [18]; post-emergence, 250 g/ha",8
same,"Herbicidal efficacy, Echinochloa crusgalli","Echinochloa crusgalli [18]; post-emergence, 500 g/ha",10
same,"Herbicidal efficacy, Echinochloa crusgalli","Echinochloa crusgalli [18]; post-emergence, 1,000 g/ha",10
same,"Phytotoxicity, Cotton",Cotton [19],1
same,"Herbicidal efficacy, Echinochloa crusgalli","Echinochloa crusgalli [20]; 62.5 g/ha, scale 0 to 10",10
same,"Herbicidal efficacy, Echinochloa crusgalli","Echinochloa crusgalli [20]; 125 g/ha, scale 0 to 10",10
same,"Herbicidal efficacy, Echinochloa crusgalli","Echinochloa crusgalli [20]; 250 g/ha, scale 0 to 10",10
same,"Herbicidal efficacy, Echinochloa crusgalli",Echinochloa crusgalli [20]; [21],10
